Assay results: ChEMBL document CHEMBL3885881, “DrugMatrix”

Species: Rattus norvegicus
Experiment: DrugMatrix - Regimen: Daily Repeat
Type: toxicity, organism-based, Sprague-Dawley
Set-up: regimen Daily Repeat, gender Male, age 6-8 weeks
Settings: in vivo, po, route oral GAVAGE, vehicle .5 % CMC; for ABSOLUTE BASOPHIL / ABSOLUTE EOSINOPHIL / ABSOLUTE LYMPHOCYTE / ABSOLUTE MONOCYTE / ABSOLUTE SEGMENTED NEUTROPHIL / BASOPHIL / EOSINOPHIL / ERYTHROCYTE COUNT / HEMATOCRIT / HEMOGLOBIN / LEUKOCYTE COUNT / LYMPHOCYTE / MEAN CORPUSCULAR HEMOGLOBIN / MEAN CORPUSCULAR HEMOGLOBIN CONCENTRATION / MEAN CORPUSCULAR VOLUME / MONOCYTE / NEUTROPHIL / NUCLEATED RED BLOOD CELLS / PLATELET COUNT: tissue Blood; for ALANINE AMINOTRANSFERASE / ALBUMIN / ALKALINE PHOSPHATASE / ASPARTATE AMINOTRANSFERASE / BLOOD UREA NITROGEN / CARBON DIOXIDE / CHLORIDE / CHOLESTEROL / CREATINE PHOSPHOKINASE / CREATININE / GLUCOSE / LACTATE DEHYDROGENASE / LIPASE / PHOSPHORUS / POTASSIUM / SODIUM / TOTAL BILIRUBIN / TOTAL PROTEIN / URIC ACID: tissue Plasma
[1] = 100 mg/kg, 120 h, dose level Low, time 5 day
[2] = 2500 mg/kg, 72 h, dose level High, time 3 day
[3] = 2500 mg/kg, 120 h, dose level High, time 5 day

## COC1=C(OC)C(=O)C(CCCCCCCCCCO)=C(C)C1=O [IDEBENONE]
[1]
  ABSOLUTE BASOPHIL: 0 CELLS/uL
  ABSOLUTE EOSINOPHIL: 0 CELLS/uL
  ABSOLUTE LYMPHOCYTE: 14055 CELLS/uL
  ABSOLUTE MONOCYTE: 144.33 CELLS/uL
  ABSOLUTE SEGMENTED NEUTROPHIL: 1000.67 CELLS/uL
  BASOPHIL: 0%
  EOSINOPHIL: 0%
  ERYTHROCYTE COUNT: 5.62 x10E6/uL
  HEMATOCRIT: 35.7%
  HEMOGLOBIN: 14.47 G/DL
  LEUKOCYTE COUNT: 15.2 x10E3/uL
  LYMPHOCYTE: 92.33%
  MEAN CORPUSCULAR HEMOGLOBIN: 25.8 pg
  MEAN CORPUSCULAR HEMOGLOBIN CONCENTRATION: 40.57 G/DL
  MEAN CORPUSCULAR VOLUME: 63.63 fL
  MONOCYTE: 1%
  NEUTROPHIL: 6.67%
  NUCLEATED RED BLOOD CELLS: 0.33 /100WBC
  PLATELET COUNT: 1018.67 x10E3/uL
  ALANINE AMINOTRANSFERASE: 63.67 u/L
  ALBUMIN: 4.47 G/DL
  ALKALINE PHOSPHATASE: 410 u/L
  ASPARTATE AMINOTRANSFERASE: 93 u/L
  BLOOD UREA NITROGEN: 16 mg/dL
  CARBON DIOXIDE: 32.33 mmol/L
  CHLORIDE: 102.67 MEQ/L
  CHOLESTEROL: 71.67 mg/dL
  CREATINE PHOSPHOKINASE: 369.33 u/L
  CREATININE: 0.13 mg/dL
  GLUCOSE: 152.33 mg/dL
  LACTATE DEHYDROGENASE: 136 u/L
  LIPASE: 10.33 u/L
  PHOSPHORUS: 11.63 mg/dL
  POTASSIUM: 6.29 MEQ/L
  SODIUM: 145.4 MEQ/L
  TOTAL BILIRUBIN: 0.13 mg/dL
  TOTAL PROTEIN: 6.13 G/DL
  URIC ACID: 1.03 mg/dL
[2]
  ABSOLUTE BASOPHIL: 0 CELLS/uL
  ABSOLUTE EOSINOPHIL: 0 CELLS/uL
  ABSOLUTE LYMPHOCYTE: 12762.67 CELLS/uL
  ABSOLUTE MONOCYTE: 85.33 CELLS/uL
  ABSOLUTE SEGMENTED NEUTROPHIL: 1385.33 CELLS/uL
  BASOPHIL: 0%
  EOSINOPHIL: 0%
  ERYTHROCYTE COUNT: 5.73 x10E6/uL
  HEMATOCRIT: 36.83%
  HEMOGLOBIN: 14 G/DL
  LEUKOCYTE COUNT: 14.23 x10E3/uL
  LYMPHOCYTE: 89.33%
  MEAN CORPUSCULAR HEMOGLOBIN: 24.43 pg
  MEAN CORPUSCULAR HEMOGLOBIN CONCENTRATION: 38 G/DL
  MEAN CORPUSCULAR VOLUME: 64.3 fL
  MONOCYTE: 0.67%
  NEUTROPHIL: 10%
  NUCLEATED RED BLOOD CELLS: 0.33 /100WBC
  PLATELET COUNT: 1207.33 x10E3/uL
  ALANINE AMINOTRANSFERASE: 63.67 u/L
  ALBUMIN: 4.23 G/DL
  ALKALINE PHOSPHATASE: 312.33 u/L
  ASPARTATE AMINOTRANSFERASE: 80.67 u/L
  BLOOD UREA NITROGEN: 13.67 mg/dL
  CARBON DIOXIDE: 32.33 mmol/L
  CHLORIDE: 103.67 MEQ/L
  CHOLESTEROL: 71.33 mg/dL
  CREATINE PHOSPHOKINASE: 242.67 u/L
  CREATININE: 0.15 mg/dL
  GLUCOSE: 157.67 mg/dL
  LACTATE DEHYDROGENASE: 80.67 u/L
  LIPASE: 11 u/L
  PHOSPHORUS: 10.1 mg/dL
  POTASSIUM: 6.3 MEQ/L
  SODIUM: 144.83 MEQ/L
  TOTAL BILIRUBIN: 0.17 mg/dL
  TOTAL PROTEIN: 5.33 G/DL
  URIC ACID: 1.27 mg/dL
[3]
  ABSOLUTE BASOPHIL: 0 CELLS/uL
  ABSOLUTE EOSINOPHIL: 79.33 CELLS/uL
  ABSOLUTE LYMPHOCYTE: 11851 CELLS/uL
  ABSOLUTE MONOCYTE: 40.67 CELLS/uL
  ABSOLUTE SEGMENTED NEUTROPHIL: 1262.33 CELLS/uL
  BASOPHIL: 0%
  EOSINOPHIL: 0.67%
  ERYTHROCYTE COUNT: 5.54 x10E6/uL
  HEMATOCRIT: 33.87%
  HEMOGLOBIN: 13.77 G/DL
  LEUKOCYTE COUNT: 13.23 x10E3/uL
  LYMPHOCYTE: 89.33%
  MEAN CORPUSCULAR HEMOGLOBIN: 24.87 pg
  MEAN CORPUSCULAR HEMOGLOBIN CONCENTRATION: 40.67 G/DL
  MEAN CORPUSCULAR VOLUME: 61.17 fL
  MONOCYTE: 0.33%
  NEUTROPHIL: 9.67%
  NUCLEATED RED BLOOD CELLS: 0 /100WBC
  PLATELET COUNT: 1402 x10E3/uL
  ALANINE AMINOTRANSFERASE: 63 u/L
  ALBUMIN: 4.47 G/DL
  ALKALINE PHOSPHATASE: 280.33 u/L
  ASPARTATE AMINOTRANSFERASE: 108 u/L
  BLOOD UREA NITROGEN: 18.33 mg/dL
  CARBON DIOXIDE: 30 mmol/L
  CHLORIDE: 101.33 MEQ/L
  CHOLESTEROL: 63.33 mg/dL
  CREATINE PHOSPHOKINASE: 512 u/L
  CREATININE: 0.19 mg/dL
  GLUCOSE: 146.67 mg/dL
  LACTATE DEHYDROGENASE: 149.33 u/L
  LIPASE: 8.67 u/L
  PHOSPHORUS: 9.97 mg/dL
  POTASSIUM: 6.03 MEQ/L
  SODIUM: 145.03 MEQ/L
  TOTAL BILIRUBIN: 0.23 mg/dL
  TOTAL PROTEIN: 6.1 G/DL
  URIC ACID: 0.9 mg/dL
